Results as given in patent US20250034211A1, “C-TERMINAL EXTENDED P53 ACTIVATOR CROSSLINKED PEPTIDOMIMETIC MACROCYCLES AGAINST MDM2/MDMX” (Merck Sharp & Dohme LLC, priority 2021, published 2025).
≈ marks a conversion by molar mass, not a printed value. *1 amine or outer side, *2 acyl side, *3 side chain or, on linkers, in order; H or OH if unused. Where a SMILES comes first, the peptide text is derived from it. Bridges are numbered along the chain shown (N, C = ends). [ ]: non-standard residue; d: D form. ξ: configuration not given here. ξαMeNle(6-ylidene) = CC(CCCC=[*:3])(N[*:1])C(=O)[*:2]; X1 = CC(CCCCCCC=[*:3])(N[*:1])C(=O)[*:2]; Lys(N3) = [N-]=[N+]=NCCCC[C@H](N)C(=O)O; R8 = C=CCCCCCC[C@@](C)(N)C(=O)O; ξαMeE = CC(N)(CCC(=O)O)C(=O)O; Cba = N[C@@H](CC1CCC1)C(=O)O; S5 = C=CCCC[C@](C)(N)C(=O)O; βAla = NCCC(=O)O

Key:
p53 null Ca Ski = details: for p53 null Ca Ski proliferation % Max: 72 h, 10% serum; for % inhibition at maximum concentration in p53 null negative control cell line: maximum assay concentration (50 uM)
[1] = biological target: T1, MDM2 (1-125; SEQ ID NO 14) (Homo sapiens, UniProt Q00987); assay: MDM2 binding assay (fluorescence anisotropy competition, FP)
T1 construct: GST (N); His6 (internal); TEV cleavage site ENLYFQG (internal); made in house; host or cells: E. coli BL21 (DE3) Rosetta T1R
Protocol: [P] is the protein concentration (MDM2), [L] is the labeled peptide concentration, r is the anisotropy measured, r0 is the anisotropy of the free peptide, rb is the anisotropy of the MDM2-FAM-labeled peptide complex, Kd is the dissociation constant, [L]t is the total FAM labeled peptide concentration, and [P]t is the total MDM2 concentration. […] The competing molecules were then titrated against the complex of the FAM-labeled peptide and protein. Apparent Kd values were determined by fitting the experimental data to the equations shown below:
[L]st and [L]t denote labeled ligand and total unlabeled ligand input concentrations, respectively. Kd2 is the dissociation constant of the interaction between the unlabeled ligand and the protein. In all competition experiments, it is assumed that [P]t>[L]st, otherwise considerable amounts of free labeled ligand would always be present and would interfere with measurements. […] The FAM-labeled peptide was dissolved in dimethyl sulfoxide (DMSO) at 1 mM and diluted into experimental buffer. Readings were carried out with an Envision Multilabel Reader (PerkinElmer). […] All titrations were carried out in triplicate. Curve-fitting was carried out using Prism 4.0 (GraphPad). […] Negative control titrations of the ligands under investigation were also carried out with the fluorescently labeled peptide (in the absence of MDM2) to ensure no interactions were occurring between the ligands and the FAM-labeled peptide.

[2] = test system: p53 (HCT116 cells stably transfected with a p53 responsive β-lactamase reporter); assay: p53 beta-lactamase reporter gene cellular functional assay; format: cell-based
Protocol: HCT116 cells were stably transfected with a p53 responsive β-lactamase reporter, and were seeded into a 384-well plate at a density of 8,000 cells per well. Cells were maintained in McCoy's 5A Medium with 10% fetal bovine serum ([…]), Blasticidin and Penicillin/Streptomycin. The cells were incubated overnight and followed by removal of cell growth media and replaced with Opti-MEM either containing 0% FBS or 10% FBS. Peptides were then dispensed to each well using a liquid handler, ECHO 555 and incubated for 4/16 hours. Final working concentration of dimethyl sulfoxide (DMSO) was 0.5%. β-Lactamase activity was detected using the ToxBLAzer Dual Screen (Invitrogen) as per manufacturer's instructions. Measurements were done using Envision multiplate reader (Perkin-Elmer). Maximum p53 activity was defined as the amount of β-lactamase activity induced by 50 μM azide-ATSP-7041 (stapled p53 peptide; Aileron Therapeutics, Inc.). This was determined as the highest amount of p53 activity induced by azide-ATSP-7041 by titration on HCT116 cells.

HCT116 = details: for HCT116 proliferation % Max: 72 h, 10% serum; for EC50: read-out: cellular efficacy in cell proliferation HTC116 p53 positive control cell lines
[3] = test system: Jump-In T-REx CHO-K1 BLA cells; assay: Tetracycline beta-lactamase reporter gene assay (counter screen); format: cell-based
Protocol: Based on Jump-In™ T-REx™ CHO-K1 BLA cells and contain a stably integrated β-lactamase under the control of an inducible CMV promoter. Cells were seeded into a 384-well plate a density of 4000 cells per well. Cells were maintained in Dulbecco's Minimal Eagle Medium (DMEM) with 10% fetal bovine serum (FBS), Blasticidin and Penicillin/Streptomycin. The cells were incubated for 24 hours, followed by cell media removal and replacement with Opti-MEM either containing 10% FBS or 0% FBS. Peptides were then dispensed to each well using a liquid handler, ECHO 555 and incubated for 4/16 hours. Final working concentration of DMSO was 0.5%. β-Lactamase activity was detected using the ToxBLAzer Dual Screen (Invitrogen) as per manufacturer's instructions. Measurements were carried out using Envision multiplate reader (Perkin Elmer). Counter Screen activity was defined as the amount of 0-lactamase activity induced by tetracycline.

HCT116 cells = assay: Lactate dehydrogenase release assay (LDH); format: cell-based
Protocol: HCT116 cells were seeded into a 384-well plate at a density of 8000 cells per well. Cells were maintained in McCoy's 5A Medium with 10% fetal bovine serum (FBS), Blasticidin and Penicillin/Streptomycin. The cells were incubated overnight followed by the removal of cell media and the addition of Opti-MEM Medium without FBS. Cells were then treated with peptides for 4/16 hours in Opti-MEM either in 10% FBS or serum free. Final concentration of DMSO was 0.5%. Lactate dehydrogenase release was detected using CytoTox-ONE Homogenous Membrane Integrity Assay Kit (Promega) as per manufacturer's instructions. Measurements were carried out using Tecan plate reader. Maximum LDH release was defined as the amount of LDH released induced by the lytic peptide (iDNA79) and used to normalize the results.

Solubility (PBS, pH 7) = details: pH 7

T1 sequence (Q00987 with tags, fused parts or gaps): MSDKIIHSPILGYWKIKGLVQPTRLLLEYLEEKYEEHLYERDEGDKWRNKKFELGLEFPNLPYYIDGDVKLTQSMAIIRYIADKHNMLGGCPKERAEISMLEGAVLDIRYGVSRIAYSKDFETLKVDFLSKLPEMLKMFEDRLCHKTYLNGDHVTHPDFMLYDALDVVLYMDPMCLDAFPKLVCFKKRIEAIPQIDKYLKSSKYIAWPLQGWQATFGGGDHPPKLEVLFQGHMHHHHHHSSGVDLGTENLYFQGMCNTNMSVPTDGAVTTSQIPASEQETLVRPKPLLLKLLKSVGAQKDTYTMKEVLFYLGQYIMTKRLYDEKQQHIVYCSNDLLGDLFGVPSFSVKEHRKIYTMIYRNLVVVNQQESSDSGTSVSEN

Compound	p53 null Ca Ski proliferation % Max (p53 null Ca Ski) [%]	% inhibition at maximum concentration in p53 null negative control cell line (p53 null Ca Ski) [%]	Kd [1] [µM]	EC50 ([2]; 0% serum at 4 hours) [µM]	EC50 ([2]; 10% serum at 16 hours) [µM]	fold improvement of cellular activity in p53 cellular assay ([2]; versus Reference Macrocycle 1, both 0% serum at 4 hours and 10% serum at 16 hours) [fold]	HCT116 proliferation % Max (HCT116) [%]	EC50 (HCT116) [µM]	EC50 ([3]; 0% FBS, 4 h) [µM]	EC50 ([3]; 10% FBS, 16 h) [µM]	EC50 (HCT116 cells; 0% FBS, 4 h) [µM]	EC50 (HCT116 cells; 10% FBS, 16 h) [µM]	solubility (Solubility (PBS, pH 7); PBS) [µM]	logD (HPLC LogD)	solubility (Solubility (PBS, pH 7)) [µM]	chromatographic logD (HPLC LogD)	EC50 (p53 null Ca Ski; read-out: EC50 in p53 null negative control cell line) [µM]
CC(=O)N[C@@H](CCCCN=[N+]=[N-])C(=O)NCCC(=O)N[C@@H](CC(C)C)C(=O)N[C@H](C(=O)N[C@@H](Cc1ccccc1)C(=O)N[C@]1(C)CCCCCCC=CCCC[C@@](C)(C(=O)N[C@@H](C)C(=O)N[C@@H](C)C(=O)N[C@@H](C)C(=O)N[C@@H](C)C(=O)N[C@@H](C)C(=O)N[C@@H](C)C(N)=O)NC(=O)[C@H](CC2CCC2)NC(=O)[C@H](CCC(N)=O)NC(=O)[C@H](C)NC(=O)[C@H](Cc2c[nH]c3ccccc23)NC(=O)[C@H](Cc2ccc(O)cc2)NC(=O)[C@H](CCC(=O)O)NC1=O)[C@@H](C)O [Macrocycle 2, Ac-K(N3)-betaAla-L-T-F-X1a-E-Y-W-A-Q-Cba-X2a-AAAAAA-NH2 (olefin staple from X1a to X2a)] (Ac-[Lys(N3)][βAla]LTF[R8]EYWAQ[Cba][S5]AAAAAA-NH2; staple 6-13)	29	29	0.0094	0.143	0.749	~3.5	89	0.57	> 50	> 50	> 50	> 50					
CC(=O)N[C@@H](CCCCN=[N+]=[N-])C(=O)NCCC(=O)N[C@@H](CC(C)C)C(=O)N[C@H](C(=O)N[C@@H](Cc1ccccc1)C(=O)N[C@]1(C)CCCCCCC=CCCC[C@@](C)(C(=O)N[C@@H](C)C(=O)N[C@@H](C)C(=O)N[C@@H](Cc2ccccc2)C(=O)N[C@@H](C)C(=O)N[C@@H](C)C(=O)N[C@H](Cc2ccccc2)C(N)=O)NC(=O)[C@H](CC2CCC2)NC(=O)[C@H](CCC(N)=O)NC(=O)[C@H](C)NC(=O)[C@H](Cc2c[nH]c3ccccc23)NC(=O)[C@H](Cc2ccc(O)cc2)NC(=O)[C@H](CCC(=O)O)NC1=O)[C@@H](C)O [Macrocycle 5, Ac-K(N3)-betaAla-L-T-F-X1a-E-Y-W-A-Q-Cba-X2a-AAFAA-(D-Phe)-NH2(olefinstaple from X1ato X2a)] (Ac-[Lys(N3)][βAla]LTF[R8]EYWAQ[Cba][S5]AAFAA[dF]-NH2; staple 6-13)			0.056						> 50	> 50	> 50	> 50	9 (≈ 20.9 µg/mL)	4.12			
CC(=O)N[C@@H](CCCCN=[N+]=[N-])C(=O)NCCC(=O)N[C@@H](CC(C)C)C(=O)N[C@H](C(=O)N[C@@H](Cc1ccccc1)C(=O)N[C@]1(C)CCCCCCC=CCCC[C@@](C)(C(=O)N[C@@H](C)C(=O)N[C@@H](C)C(=O)N[C@@H](C)C(=O)N[C@@H](C)C(=O)N[C@@H](C)C(=O)N[C@@H](Cc2ccccc2)C(N)=O)NC(=O)[C@H](CC2CCC2)NC(=O)[C@H](CCC(N)=O)NC(=O)[C@H](C)NC(=O)[C@H](Cc2c[nH]c3ccccc23)NC(=O)[C@H](Cc2ccc(O)cc2)NC(=O)[C@H](CCC(=O)O)NC1=O)[C@@H](C)O [Macrocycle 6, Ac-K(N3)-betaAla-L-T-F-X1a-E-Y-W-A-Q-Cba-X2a-AAAAAF-NH2 (olefin staple from X1a to X2a)] (Ac-[Lys(N3)][βAla]LTF[R8]EYWAQ[Cba][S5]AAAAAF-NH2; staple 6-13)			0.0021						> 50	> 50	> 50	> 50					
CC(=O)N[C@@H](CCCCN=[N+]=[N-])C(=O)NCCC(=O)N[C@@H](CC(C)C)C(=O)N[C@H](C(=O)N[C@@H](Cc1ccccc1)C(=O)N[C@]1(C)CCCCCCC=CCCC[C@@](C)(C(=O)N[C@@H](C)C(=O)N[C@@H](C)C(=O)N[C@@H](Cc2ccccc2)C(=O)N[C@@H](C)C(=O)N[C@@H](C)C(=O)N[C@H](C)C(N)=O)NC(=O)[C@H](CC2CCC2)NC(=O)[C@H](CCC(N)=O)NC(=O)[C@H](C)NC(=O)[C@H](Cc2c[nH]c3ccccc23)NC(=O)[C@H](Cc2ccc(O)cc2)NC(=O)[C@H](CCC(=O)O)NC1=O)[C@@H](C)O [Macrocycle 7, Ac-K(N3)-betaAla-L-T-F-X1a-E-Y-W-A-Q-Cba-X2a-AAFAA-(D-Ala)-NH2(olefinstaple from X1ato X2a)] (Ac-[Lys(N3)][βAla]LTF[R8]EYWAQ[Cba][S5]AAFAA[dA]-NH2; staple 6-13)			0.0042						> 50	> 50	> 50	> 50	2 (≈ 4.49 µg/mL)	3.59			
CC(=O)N[C@@H](CCCCN=[N+]=[N-])C(=O)NCCC(=O)N[C@@H](CC(C)C)C(=O)N[C@H](C(=O)N[C@@H](Cc1ccccc1)C(=O)NC1(C)CCCCCCC=CCCCC(C)(C(=O)N[C@@H](C)C(=O)N[C@@H](C)C(=O)N[C@@H](Cc2ccccc2)C(=O)N[C@@H](C)C(=O)NC(C)(CCC(=O)O)C(=O)N[C@@H](Cc2ccccc2)C(N)=O)NC(=O)[C@H](CC2CCC2)NC(=O)[C@H](CCC(N)=O)NC(=O)[C@H](C)NC(=O)[C@H](Cc2c[nH]c3ccccc23)NC(=O)[C@H](Cc2ccc(O)cc2)NC(=O)[C@H](CCC(=O)O)NC1=O)[C@@H](C)O (stereo partly drawn) [Macrocycle 9, Ac-K(N3)-betaAla-L-T-F-X1a-E-Y-W-A-Q-Cba-X2a-AAFA-(alpha-methyl-Glu)-F-NH2(olefinstaple from X1ato X2a)] (Ac-[Lys(N3)][βAla]LTF[X1]EYWAQ[Cba][ξαMeNle(6-ylidene)]AAFA[ξαMeE]F-NH2; staple 6-13)									> 50	> 50					153 (≈ 366 µg/mL)	2.93	
CC(=O)N[C@@H](CCCCN=[N+]=[N-])C(=O)NCCC(=O)N[C@@H](CC(C)C)C(=O)N[C@H](C(=O)N[C@@H](Cc1ccccc1)C(=O)N[C@]1(C)CCCCC#CC#CCCC[C@@](C)(C(=O)N[C@@H](C)C(=O)N[C@@H](C)C(=O)N[C@@H](C)C(=O)N[C@@H](C)C(=O)N[C@@H](C)C(=O)N[C@@H](C)C(N)=O)NC(=O)[C@H](CC2CCC2)NC(=O)[C@H](CCC(N)=O)NC(=O)[C@H](C)NC(=O)[C@H](Cc2c[nH]c3ccccc23)NC(=O)[C@H](Cc2ccc(O)cc2)NC(=O)[C@H](CCC(=O)O)NC1=O)[C@@H](C)O [Macrocycle 12, Ac-K(N3)-betaAla-L-T-F-X1b-E-Y-W-A-Q-Cba-X2b-AAAAAA-NH2 (di-alkyne staple from X1b to X2b)]	3	3					72	0.124	> 50	> 50	> 50	> 50				2.69	> 50
